According to publication PMC8800119 (The Journal of Biological Chemistry, 2022):

Target: T1, glutaminase C (GAC) (Homo sapiens, UniProt O94925, Y466W)
T1 sequence (O94925 72-550 Y466W): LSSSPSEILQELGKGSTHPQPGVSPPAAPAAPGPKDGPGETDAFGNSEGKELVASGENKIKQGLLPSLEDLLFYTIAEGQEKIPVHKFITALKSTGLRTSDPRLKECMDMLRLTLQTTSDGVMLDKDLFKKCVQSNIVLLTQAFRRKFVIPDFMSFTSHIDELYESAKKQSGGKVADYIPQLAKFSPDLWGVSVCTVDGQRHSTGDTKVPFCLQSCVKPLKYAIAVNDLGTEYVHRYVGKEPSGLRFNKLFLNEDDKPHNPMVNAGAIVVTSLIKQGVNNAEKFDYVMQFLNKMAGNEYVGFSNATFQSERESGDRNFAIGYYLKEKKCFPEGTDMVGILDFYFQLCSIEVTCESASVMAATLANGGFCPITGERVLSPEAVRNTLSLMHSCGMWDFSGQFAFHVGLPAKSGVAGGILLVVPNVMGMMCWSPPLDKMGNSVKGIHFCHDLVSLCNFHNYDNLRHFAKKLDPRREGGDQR
Experiment: Trp466 fluorescence titration of phosphate at […] glutamine
Assay type: binding

Kd: 8.5 ± 1.9 mM
Compound: O=P(O)(O)O [inorganic phosphate]
